Data reported in patent publication US20240299416A1, “TREATMENT OF NF-kB-MEDIATED DISEASE” (ReveraGen BioPharma, Inc., priority 2021, published 2024).

Legend:
glucocorticoid receptor = target: T1, glucocorticoid receptor (Homo sapiens, UniProt P04150); settings: cited from earlier work
T1 sequence (P04150 1-777): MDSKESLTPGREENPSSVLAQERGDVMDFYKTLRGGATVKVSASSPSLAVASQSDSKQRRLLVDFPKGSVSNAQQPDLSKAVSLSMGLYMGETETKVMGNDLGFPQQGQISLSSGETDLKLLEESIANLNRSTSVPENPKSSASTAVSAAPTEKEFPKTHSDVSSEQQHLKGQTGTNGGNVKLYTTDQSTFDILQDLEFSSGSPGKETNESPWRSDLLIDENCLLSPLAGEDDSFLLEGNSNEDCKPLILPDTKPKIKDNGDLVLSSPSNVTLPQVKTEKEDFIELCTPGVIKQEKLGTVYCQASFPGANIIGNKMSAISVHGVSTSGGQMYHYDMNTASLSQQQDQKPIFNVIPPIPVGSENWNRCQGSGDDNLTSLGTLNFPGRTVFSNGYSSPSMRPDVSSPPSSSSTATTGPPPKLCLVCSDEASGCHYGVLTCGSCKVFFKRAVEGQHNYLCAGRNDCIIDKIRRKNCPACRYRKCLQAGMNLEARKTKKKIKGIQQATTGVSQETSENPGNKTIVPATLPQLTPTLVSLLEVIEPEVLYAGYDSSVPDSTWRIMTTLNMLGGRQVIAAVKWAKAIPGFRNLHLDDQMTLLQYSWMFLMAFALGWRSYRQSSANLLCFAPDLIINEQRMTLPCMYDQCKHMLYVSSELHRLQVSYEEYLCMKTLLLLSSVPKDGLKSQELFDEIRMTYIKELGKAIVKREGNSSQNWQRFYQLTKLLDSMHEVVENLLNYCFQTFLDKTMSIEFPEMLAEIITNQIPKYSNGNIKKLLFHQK

[1] = VBP15-003 24-week dose-finding extension, safety; type: in vivo, human
Experimental: Vamorolone clinical studies have been conducted in adult male volunteers and boys with DMD, a disorder in which skeletal muscle is in a chronic inflammatory state. Two consecutive open-label dose-ranging studies in 48 DMD patients aged 4 to <7 years (corticosteroid-naïve) were conducted (Phase IIa, VBP15-002; Phase IIa, VBP15-003). Doses were tested over a 24-fold dose range (0.25, 0.75, 2.0, and 6.0 mg/kg/day), with 12 participants per group. The first multiple ascending dose (MAD) cohort trial-tested pharmacokinetics (PK) and safety for 2 weeks of drug dosing followed by a 2-week washout (VBP15-002). […] All DMD participants completed the MAD study and then continued on the same dose for a 24-week dose-finding (efficacy and safety) extension study (VBP15-003).
VBP15-002 (Phase IIa; two weeks on the drug, two weeks off drug) enrolled 48 corticosteroid-naïve participants with DMD, and all 48 participants completed the study and enrolled into VBP15-003 (Phase IIa extension; 24-week treatment). Forty-six of 48 participants completed the VBP15-003 study (2 participants withdrew from VBP15-003 for reasons unrelated to the study drug). In addition, all participants (46/46) opted to enroll in the 24-month long-term extension study, VBP15-LTE.
Only participants completing VBP15-002 and VBP15-003 were eligible to enroll in VBP15-LTE. Participants received vamorolone at 1 of 4 dose levels (0.25, 0.75, 2.0, or 6.0 mg/kg/day) and at the same dose level in both the 4-week VBP15-002 trial and the 24-week VBP15-003 trial. If participants, their families, and their physicians wished to continue vamorolone treatment upon exiting the VBP15-003 trial, they were offered participation in the 24-month long-term extension (VBP15-LTE). The last visit of the VBP15-003 trial was commensurate with the first visit of the VBP15-LTE trial. In all studies, study medication was provided as 4% flavored liquid suspension and was dosed according to body weight and given once daily in the morning with food.
Study visits took place quarterly, including assessment of clinical laboratory results, vital signs, and AEs. All AEs were coded using the Medical Dictionary for Regulatory Activities (MedDRA version 19.0) system for reporting (preferred term and system organ class). Clinical efficacy assessments were performed at baseline of the VBP15-002 study, at six months (end of VBP15-003 study), and the 12-month midpoint visit of the VBP15-LTE study.

[2] = VBP15-004 adverse events at 24 weeks; design: species or system human; settings: in vivo
Source text: In certain embodiments, the symptom may be an adverse event of special interest (AESI). In this context, AESIs are prespecified based on pre-defined MedDRA search criteria for eleven AESI categories for the corticosteroid class and then further stratified into AESI of at least moderate severity. The symptoms for treating DMD with corticosteroids include, but is not limited to, behavior adverse events, blood glucose related problems, gastrointestinal symptoms, increased arterial blood pressure, immune suppression/infections, skin/hair changes, cataracts/glaucoma, cushingoid features, weight gain, bone fractures, slow growth.
The second period of 24 weeks, where all participants receive vamorolone treatment on either of the two dose levels, will continue to capture additional longer-term safety and tolerability data.

C[C@@H]1C[C@H]2[C@@H]3CCC4=CC(=O)C=C[C@]4(C)C3=CC[C@]2(C)[C@@]1(O)C(=O)CO [Vamorolone, 17α,21-dihydroxy-16α-methylpregna-1,4,9(11)-triene-3,20-dione]
binding to the glucocorticoid receptor (glucocorticoid receptor): potently binds | TEAE abnormal behavior, participants ([1]; 2.0-mg/kg/day group): one participant | TEAE Cushingoid habitus, participants ([1]; 6.0-mg/kg/day group): one participant each | TEAE abnormal blood cortisol level, participants ([1]; 6.0-mg/kg/day group): one participant each | TEAE anxiety, participants ([1]; 6.0-mg/kg/day group): one participant each | TEAE hypertrichosis, participants ([1]; 6.0-mg/kg/day group): two participants | TEAE personality change, participants ([1]; 6.0-mg/kg/day group): one participant each | safety and tolerability ([1]; oral, all doses tested, 24 weeks): safe and well-tolerated | clinically relevant psychiatric events, subjects [2]: no vamorolone-treated subjects | Aggression, any severity, F ([2]; male, human, 24 weeks): 1 | Agitation, any severity, F ([2]; male, human, 24 weeks): 1 | Anxiety, any severity, F ([2]; male, human, 24 weeks): 1 | Any Behavior AESI, moderate/severe, F ([2]; male, human, 24 weeks): 1 | Irritability, any severity, F ([2]; male, human, 24 weeks): 3 | Mood altered, any severity, F ([2]; male, human, 24 weeks): 1 | Poor quality sleep, any severity, F ([2]; male, human, 24 weeks): 1 | Psychomotor hyperactivity, any severity, F ([2]; male, human, 24 weeks): 2 | Serious adverse events, F ([2]; male, human, 24 weeks): 1 | Skin laceration, any severity, F ([2]; male, human, 24 weeks): 1 | Skin laceration, moderate/severe, F ([2]; male, human, 24 weeks): 1 | Sleep disorder, any severity, F ([2]; male, human, 24 weeks): 1 | moderate/severe behavior problems, subjects ([2]; male, human, 24 weeks): 1.7%
